Values joined by “and” are separate entries in the source; they are usually repeats but may differ in a detail not shown here. Identical values can stand only once.
Key:
Type in all cases: in vitro ADME
[1] = Human liver microsomes stability; details: for CLint (μL/min/mg protein) / t1/2: 2 μM compound
Procedure: (§1) The objective of this study was to estimate in vitro metabolic stability of exemplary compounds of Formula (I) or a pharmaceutically acceptable salt, solvate, and/or prodrug thereof in pooled human, male rat, and male mouse liver microsomes. The concentrations of compounds in reaction systems were evaluated by LC-MS/MS for estimating the stability in pooled human, male rat, and male mouse liver microsomes. The in vitro intrinsic clearances of test compounds were determined as well.
(§2) A master solution in the “Incubation Plate” containing phosphate buffer, ultra-pure H2O, MgCl2 solution and liver microsomes was made according to Table 33. The mixture was pre-warmed at 37° C. water bath for 5 minutes.
(§3) 40 μL of 10 mM nicotinamide adenine dinucleotide phosphate (NADPH) solution was added to each well. The final concentration of NADPH was 1 mM. The negative control samples were prepared by replacing NADPH with 40 μL of ultra-pure H2O. Samples were prepared in duplicate. Negative controls were prepared in singlet.
(§4) The reaction was started with the addition of 4 μL of 200 μM exemplary test compounds of the disclosure or control compounds to each master solution to get the final concentration of 2 μM. This study was performed in duplicate.
(§5) Aliquots of 50 μL were taken from the reaction solution at 0, 15, 30, 45, and 60 minutes. The reaction solutions were stopped by the addition of 4 volumes of cold methanol with IS (100 nM alprazolam, 200 nM imipramine, 200 nM labet alol and 2 μM ketoprofen). Samples were centrifuged at 3,220 g for 40 minutes. Aliquot of 90 μL of the supernatant was mixed with 90 μL of ultra-pure H2O and then was used for LC-MS/MS analysis.
(§6) LC/MS analysis was performed for all samples from this study using a Shimadzu liquid chromatograph separation system equipped with degasser DGU-20A5R; solvent delivery unit LC-30AD; system controller SIL-30AC; column oven CTO-30A; CTC Analytics HTC PAL System. Mass spectrometric analysis was performed using a Triple Quad™ 5500 instrument.
(§7) All calculations were carried out using Microsoft Excel. Peak area ratios of test compound to internal standard (listed in the below table) were determined from extracted ion chromatograms.
(§8) All calculations were carried out using Microsoft Excel. Peak areas were determined from extracted ion chromatograms. The slope value, k, was determined by linear regression of the natural logarithm of the remaining percentage of the parent drug vs. incubation time curve.
(§9) The in vitro half-life (in vitro t1/2) was determined from the slope value:
(§10) Conversion of the in vitro t1/2(min) into the in vitro intrinsic clearance (in vitro CLint, in μL/min/mg proteins) was done using the following equation (mean of duplicate determinations): […]
(§11) A master solution in the “Incubation Plate” containing phosphate buffer, ultra-pure H2O, MgCl2 solution and liver microsomes was made according to Table 63. The mixture was pre-warmed at 37° C. water bath for 5 minutes.
(§12) 40 μL of 10 mM NADPH solution was added to each well. The final concentration of NADPH was 1 mM. The negative control samples were prepared by replacing NADPH with 40 μL of ultra-pure H2O. Samples were prepared in duplicate. Negative controls were prepared in singlet.
(§13) Conversion of the in vitro t1/2(min) into the in vitro intrinsic clearance (in vitro C Lt, in μL/min/mg proteins) was done using the following equation (mean of duplicate determinations): […]

[2] = Rat liver microsomes stability; details: for CLint (μL/min/mg protein) / t1/2 / half-life at 2 μM / microsomal CLint at 2 μM: 2 μM compound; for half-life at 2 μM / microsomal CLint at 2 μM: male, rat; for microsomal CLint at 2 μM: read-out: CLint (μL/min/mg protein)
Procedure: as §1, §2, §3, §4, §5, §6, §7, §8, §9, §10, §11, §12, §13

[3] = Mouse liver microsomes stability; details: for microsomal CLint at 2 μM: mouse, read-out: CLint (μL/min/mg protein)
Procedure: as §1, §2, §3, §4, §5, §6, §7, §8, §9, §10, §11, §12, §13

[4] = human liver microsomes, With Cofactors, 0 min
[5] = human liver microsomes, With Cofactors, 30 min
[6] = human liver microsomes, With Cofactors, 60 min
[7] = human liver microsomes, Without Cofactors, 0 min
[8] = human liver microsomes, Without Cofactors, 30 min
[9] = human liver microsomes, Without Cofactors, 60 min
[10] = Rat liver microsomes, 0.5 mg/mL microsomes, 1 mM NADPH
[11] = Rat liver microsomes, 0.5 mg/mL microsomes, 1 mM NADPH, 37° C
[12] = pooled liver microsomes, rat liver microsomes, 0.5 mg/mL
[13] = rat liver microsomes, 0.5 mg/mL
[14] = rat liver microsomes, With Cofactors, 0 min
[15] = rat liver microsomes, With Cofactors, 30 min
[16] = rat liver microsomes, With Cofactors, 60 min
[17] = rat liver microsomes, Without Cofactors, 0 min
[18] = rat liver microsomes, Without Cofactors, 30 min
[19] = rat liver microsomes, Without Cofactors, 60 min
[20] = mouse liver microsomes, 2 μM compound, 0.5 mg/mL
[21] = mouse liver microsomes, With Cofactors, 0 min
[22] = mouse liver microsomes, With Cofactors, 30 min
[23] = mouse liver microsomes, With Cofactors, 60 min
[24] = mouse liver microsomes, Without Cofactors, 0 min
[25] = mouse liver microsomes, Without Cofactors, 30 min
[26] = mouse liver microsomes, Without Cofactors, 60 min
[27] = human liver microsomes, 0.5 mg/mL

In the case of `O=C(O)Cc1ccccc1Nc1c(Cl)cccc1Cl` [Diclofenac], the “Predicted hepatic CL” value ([1]; Human liver microsomes) was 18.38 mL/min/kg and 18.35 mL/min/kg, the “Predicted hepatic CL” value ([1]; human liver microsomes) was 18.44 mL/min/kg and 18.35 mL/min/kg and the “Remaining Percentage (%)” value [1, 4] was 100.00%. For the same compound, the “Remaining Percentage (%)” value [1, 5] was 5.01%, the “Remaining Percentage (%)” value [1, 6] was 1.77% and the “Remaining Percentage (%)” value [1, 7] was 100.00%. For the same compound, the “Remaining Percentage (%)” value [1, 8] was 112.67%, the “Remaining Percentage (%)” value [1, 9] was 96.67% and the “Predicted hepatic CL” value ([2]; Rat liver microsomes) was 41.22 mL/min/kg and 41.25 mL/min/kg. The “CLint (μL/min/mg protein)” value [2, 10] was 91.05 μL/min/mg protein, the “t1/2” value [2, 11] was 15.22 min and the half-life at 2 μM ([2]; liver microsomes, Rat liver microsomes, 0.5 mg/mL microsomes, 1 mM NADPH, 37° C) was 15.3 min. The microsomal CLint at 2 μM ([2]; liver microsomes, Rat liver microsomes, 0.5 mg/mL microsomes, 1 mM NADPH) was 90.8 µL/min/mg, the half-life at 2 μM [2, 12] was 15.1 min and the microsomal CLint at 2 μM [2, 12] was 91.9 µL/min/mg. For the same compound, the “Predicted hepatic CL” value ([2]; rat liver microsomes) was 41.34 mL/min/kg and 41.25 mL/min/kg, the “CLint (μL/min/mg protein)” value [2, 13] was 91.05 μL/min/mg protein and the “t1/2” value [2, 13] was 15.22 min. The “Remaining Percentage (%)” value [2, 14] was 100.00%, the “Remaining Percentage (%)” value [2, 15] was 11.86% and the “Remaining Percentage (%)” value [2, 16] was 6.35%. The “Remaining Percentage (%)” value [2, 17] was 100.00%, the “Remaining Percentage (%)” value [2, 18] was 102.19% and the “Remaining Percentage (%)” value [2, 19] was 100.63%. For the same compound, the “Predicted hepatic CL” value ([3]; Mouse liver microsomes) was 54.78 mL/min/kg and 56.11 mL/min/kg, the microsomal CLint at 2 μM ([3]; male, liver microsomes, Mouse liver microsomes, 2 μM compound, 0.5 mg/mL microsomes, 1 mM NADPH) was 32 µL/min/mg and the microsomal CLint at 2 μM ([3]; male, pooled liver microsomes, mouse liver microsomes, 2 μM compound, 0.5 mg/mL) was 32 µL/min/mg. The half-life at 2 μM ([3]; male, Mouse liver microsomes, 2 μM compound, 0.5 mg/mL microsomes, 1 mM NADPH, 37° C) was 40.7 min, the “Predicted hepatic CL” value ([3]; mouse liver microsomes) was 54.78 mL/min/kg and 57.42 mL/min/kg and the “Scaled-up CLint” value ([3]; mouse liver microsomes) was 158.60 mL/min/kg. The “CLint (μL/min/mg protein)” value [3, 20] was 36.25 μL/min/mg protein, the “t1/2” value [3, 20] was 38.23 min and the “Remaining Percentage (%)” value [3, 21] was 100.00%. The “Remaining Percentage (%)” value [3, 22] was 45.55%, the “Remaining Percentage (%)” value [3, 23] was 33.71% and the “Remaining Percentage (%)” value [3, 24] was 100.00%. For the same compound, the “Remaining Percentage (%)” value [3, 25] was 89.49% and the “Remaining Percentage (%)” value [3, 26] was 96.59%.
With `COc1ccc2[nH]cc(CCN(C)C)c2c1` [Compound 5-MeO-DMT] the “Predicted hepatic CL” value ([1]; Human liver microsomes) was 18.09 mL/min/kg, the “Scaled-up CLint” value ([1]; Human liver microsomes) was 143.22 mL/min/kg and the “CLint (μL/min/mg protein)” value ([1]; Human liver microsomes, 0.5 mg/mL microsomes, 1 mM NADPH) was 114.19 μL/min/mg protein. The “t1/2” value ([1]; Human liver microsomes, 0.5 mg/mL microsomes, 1 mM NADPH, 37° C) was 12.14 min, the “Predicted hepatic CL” value ([1]; human liver microsomes) was 18.09 mL/min/kg and the “Scaled-up CLint” value ([1]; human liver microsomes) was 143.22 mL/min/kg. The “CLint (μL/min/mg protein)” value [1, 27] was 114.19 μL/min/mg protein, the “t1/2” value [1, 27] was 12.14 min and the “Remaining Percentage (%)” value [1, 4] was 100.00%. For the same compound, the “Remaining Percentage (%)” value [1, 5] was 19.24%, the “Remaining Percentage (%)” value [1, 6] was 3.25% and the “Remaining Percentage (%)” value [1, 7] was 100.00%. The “Remaining Percentage (%)” value [1, 8] was 18.58%, the “Remaining Percentage (%)” value [1, 9] was 3.00% and the “Predicted hepatic CL” value ([2]; Rat liver microsomes) was 49.02 mL/min/kg. For the same compound, the “Scaled-up CLint” value ([2]; Rat liver microsomes) was 437.56 mL/min/kg, the “CLint (μL/min/mg protein)” value [2, 10] was 244.17 μL/min/mg protein and the “t1/2” value [2, 11] was 5.68 min. The “Predicted hepatic CL” value ([2]; rat liver microsomes) was 49.02 mL/min/kg, the “Scaled-up CLint” value ([2]; rat liver microsomes) was 437.56 mL/min/kg and the “CLint (μL/min/mg protein)” value [2, 13] was 244.17 μL/min/mg protein. For the same compound, the “t1/2” value [2, 13] was 5.68 min, the “Remaining Percentage (%)” value [2, 14] was 100.00% and the “Remaining Percentage (%)” value [2, 15] was 2.57%. For the same compound, the “Remaining Percentage (%)” value [2, 16] was 0.36%, the “Remaining Percentage (%)” value [2, 17] was 100.00% and the “Remaining Percentage (%)” value [2, 18] was 49.55%. The “Remaining Percentage (%)” value [2, 19] was 23.82%, the “Predicted hepatic CL” value ([3]; Mouse liver microsomes) was 54.19 mL/min/kg and the “Scaled-up CLint” value ([3]; Mouse liver microsomes) was 136.21 mL/min/kg. The “CLint (μL/min/mg protein)” value ([3]; Mouse liver microsomes, 2 μM compound, 0.5 mg/mL microsomes, 1 mM NADPH) was 31.13 μL/min/mg protein, the “t1/2” value ([3]; Mouse liver microsomes, 2 μM compound, 0.5 mg/mL microsomes, 1 mM NADPH, 37° C) was 44.52 min and the “Predicted hepatic CL” value ([3]; mouse liver microsomes) was 54.19 mL/min/kg. For the same compound, the “Scaled-up CLint” value ([3]; mouse liver microsomes) was 136.21 mL/min/kg, the “CLint (μL/min/mg protein)” value [3, 20] was 31.13 μL/min/mg protein and the “t1/2” value [3, 20] was 44.52 min. For the same compound, the “Remaining Percentage (%)” value [3, 21] was 100.00%, the “Remaining Percentage (%)” value [3, 22] was 61.84% and the “Remaining Percentage (%)” value [3, 23] was 39.30%. The “Remaining Percentage (%)” value [3, 24] was 100.00%, the “Remaining Percentage (%)” value [3, 25] was 104.76% and the “Remaining Percentage (%)” value [3, 26] was 95.24%.
